Measured values as given in patent US8404651B2, “Compositions and methods for treating viral infections” (priority 2008, dated 2013).
pEC50: −log10 of the molar value. “And” between values parts separate entries of the source, which are not always exact repeats. Identical values can stand only once.

Tests used:
[1] = MTT cytotoxicity assay, Vero; format: cell-based; details: African green monkey, Vero cells, 24-hour incubation
Protocol: (§1) Cellular cytotoxicity profile of the compounds was carried out against a panel of cell lines. Standard MTT assays were performed in 96-well plates using the Promega CellTiter96 Non-radioactive Cell Proliferation Assay Kit in conjunction with a 96-well Plate Reader (ThermoMax, Molecular devices), and MDBK, Vero, and HFF cell lines (obtained from ATCC). Several controls were employed including the nucleoside analogs 3TC, AZT, and ddC, as well as, media without drugs. SDS was used as a positive cytotoxic control. The compounds were tested in triplicate at concentrations of 100, 300, and 1000 μM. Following a 24-hour incubation of cells with the test substance, the MTT assay was carried out.

[2] = MTT cytotoxicity assay, MDBK; format: cell-based; details: cattle, MDBK cells, 24-hour incubation
Protocol: as §1

WP2 uvrA = experiment: In vitro bacterial mutagenicity assay (pre-incubation), strain WP2 uvrA; details: for Number of revertants x1, x2, x3: individual plates
Protocol: (§2) Dispense 100 microliter aliquots of the appropriate bacterial cultures into sample tubes stored on ice. Dispense aliquots of the vehicle, positive controls or dose formulations into the appropriate sample tubes. 2 mL top Agar and HBT cap was added to the sample tube, inverted three times and poured into MG plate. The lid was replaced on the plate and left on a level surface to let the agar harden. The plates were incubated in an incubator for 48 to 72 h. The background lawn and count the number of revertants was checked for each plate.

TA98 = experiment: In vitro bacterial mutagenicity assay (pre-incubation), strain TA98; details: for Number of revertants x1, x2, x3: individual plates
Protocol: as §2

[3] = system: HCV replicon cell line, AVA5; experiment: Cytotoxicity by neutral red dye uptake in replicon cultures in parallel plates; details: Table 5, Compound 2 alone or in combination, genotype 1B
Protocol: (§3) Primary anti-HCV assay-Antiviral activity against HCV was assessed in a 3-day assay (Okuse, et al., 2005; Antiviral. Res. 65:23; Korba, et al., 2008, Antiviral Res. 77:56) using the stably-expressing HCV replicon cell line, AVA5 [sub-genomic (CON1), genotype 1b](Blight, et al., 2000, Science 290:1972) maintained as sub-confluent cultures on 96-well plates. Antiviral activity was determined by blot hybridization analysis of intracellular HCV RNA (normalized to the level of cellular B-actin RNA in each culture sample). Cytotoxicity was assessed by neutral red dye uptake in cultures maintained in parallel plates.
(§4) EC50, EC90, and CC50 values were calculated by linear regression analysis (MS EXCEL®, QUATTROPRO®) using data combined from all treated cultures Korba & Gerin, 1992, Antivir. Res. 19:55; Okuse, et al., 2005, Antivir. Res. 65:23). Standard deviations for EC50 and EC90 values were calculated from the standard errors generated by the regression analyses. […] The Selectivity index (S.I.) was calculated as CC50/EC50. Recombinant human interferon 2b (PBL laboratories, Inc.) was used as an assay control.
(§5) For each combination of agents, three concentration ratios, centered on the use of the compounds at equipotent antiviral concentrations, were used. A dilution series (six three-fold-concentration steps, beginning at the approximate EC90) was then generated with the concentration ratio of the two agents remaining the same in each dilution step. Toxicity analysis was performed as described above for the monotherapies. Analysis of drug interactions in the combination studies was determined by the use of the […] program (Biosoft, Inc., Cambridge, United Kingdom). This program evaluates synergy, additivity, or antagonism by use of several methodologies, including that of Chou and Talalay with a statistical analysis employing the Monte Carlo technique to provide confidence limits, fraction-affected-confidence interval (FA-CI) plots, isobolograms, and median-effect plots. (Belenkii, M. S. Schinazi, R. A method for the analysis of combination therapies with statistical analysis. Antiviral Res. 25, 11, 2005).

[4] = as above; details: human
Protocol: as §3, §4, §5

[5] = system: replicon cell line containing H/FL-Neo (genotype 1a (H77), full length construct); experiment: Secondary anti-HCV assay: genotype 1a replicon, format of the primary assay; format: cell-based; details: Hepatitis C virus
Description: Res. 19:55; Okuse, et al., 2005, Antivir. Res. 65:23).
Secondary anti-HCV assay—This assay assesses activity against different HCV genotypes using the format described for the primary assay. Activity against the genotype 1b HCV is included for comparison. Currently available is a replicon cell line containing H/FL-Neo (genotype 1a (H77), full length construct) (Blight, et al., 2003, J. Virol. 77:3181).

[6] = In vitro cytotoxicity, HepG2; format: cell-based; details: human, HepG2 cells
[7] = system: bacterial strains TA1535, TA1537, TA98, TA100, WP2 uvrA; experiment: In vitro bacterial mutagenicity assay, overall conclusions for all strains
Protocol: as §2

[8] = TA98, absence of S9, 50 μg/plate
[9] = TA98, absence of S9, 158 μg/plate
[10] = TA98, absence of S9, 500 μg/plate
[11] = TA98, absence of S9, 1581 μg/plate
[12] = TA98, absence of S9, 5000 μg/plate
[13] = TA98, presence of S9, 50 μg/plate
[14] = TA98, presence of S9, 158 μg/plate
[15] = TA98, presence of S9, 500 μg/plate
[16] = TA98, presence of S9, 1581 μg/plate
[17] = TA98, presence of S9, 5000 μg/plate

Compound: COC1C(OP(=O)(OC[C@H]2O[C@@H](n3cnc4c(N)ncnc43)CC2O)SCOC(=O)OC(C)C)[C@@H](CO)O[C@H]1n1ccc(=O)[nH]c1=O (some centres unmarked) [Compound 2, S-isopropylcarbonyloxymethyl thiophosphate (6k) of 3′dApsU2′OMe]
- CC50 at 24 h [1]: > 1000 µM
- CC50 at 24 h [2]: > 1000 µM
- Number of revertants mean (WP2 uvrA; absence of S9, 50 μg/plate): 41
- Number of revertants x1, x2, x3 (WP2 uvrA; absence of S9, 50 μg/plate): 34 and 43 and 45
- Number of revertants mean (WP2 uvrA; absence of S9, 158 μg/plate): 42
- Number of revertants x1, x2, x3 (WP2 uvrA; absence of S9, 158 μg/plate): 49 and 44 and 33
- Number of revertants mean (WP2 uvrA; absence of S9, 500 μg/plate): 34
- Number of revertants x1, x2, x3 (WP2 uvrA; absence of S9, 500 μg/plate): 39 and 26 and 38
- Number of revertants mean (WP2 uvrA; absence of S9, 1581 μg/plate): 50
- Number of revertants x1, x2, x3 (WP2 uvrA; absence of S9, 1581 μg/plate): 44 and 56 and 51
- Number of revertants mean (WP2 uvrA; absence of S9, 5000 μg/plate): 52
- Number of revertants x1, x2, x3 (WP2 uvrA; absence of S9, 5000 μg/plate): 62 and 39 and 54
- Number of revertants mean (WP2 uvrA; presence of S9, 50 μg/plate): 44
- Number of revertants x1, x2, x3 (WP2 uvrA; presence of S9, 50 μg/plate): 48 and 43 and 42
- Number of revertants mean (WP2 uvrA; presence of S9, 158 μg/plate): 43
- Number of revertants x1, x2, x3 (WP2 uvrA; presence of S9, 158 μg/plate): 46 and 43 and 40
- Number of revertants mean (WP2 uvrA; presence of S9, 500 μg/plate): 41
- Number of revertants x1, x2, x3 (WP2 uvrA; presence of S9, 500 μg/plate): 36 and 46 and 40
- Number of revertants mean (WP2 uvrA; presence of S9, 1581 μg/plate): 47
- Number of revertants x1, x2, x3 (WP2 uvrA; presence of S9, 1581 μg/plate): 52 and 43 and 45
- Number of revertants mean (WP2 uvrA; presence of S9, 5000 μg/plate): 62
- Number of revertants x1, x2, x3 (WP2 uvrA; presence of S9, 5000 μg/plate): 61 and 60 and 65
- Number of revertants mean (TA98; [8]): 22
- Number of revertants x1, x2, x3 (TA98; [8]): 18 and 15 and 33
- Number of revertants mean (TA98; [9]): 27
- Number of revertants x1, x2, x3 (TA98; [9]): 28 (2×) and 25
- Number of revertants mean (TA98; [10]): 24
- Number of revertants x1, x2, x3 (TA98; [10]): 21 and 20 and 31
- Number of revertants mean (TA98; [11]): 25
- Number of revertants x1, x2, x3 (TA98; [11]): 24 and 18 and 33
- Number of revertants mean (TA98; [12]): 24
- Number of revertants x1, x2, x3 (TA98; [12]): 27 and 26 and 20
- Number of revertants mean (TA98; [13]): 45
- Number of revertants x1, x2, x3 (TA98; [13]): 43 and 39 and 53
- Number of revertants mean (TA98; [14]): 40
- Number of revertants x1, x2, x3 (TA98; [14]): 37 and 48 and 34
- Number of revertants mean (TA98; [15]): 39
- Number of revertants x1, x2, x3 (TA98; [15]): 31 and 40 and 46
- Number of revertants mean (TA98; [16]): 45
- Number of revertants x1, x2, x3 (TA98; [16]): 44 (2×) and 46
- Number of revertants mean (TA98; [17]): 44
- Number of revertants x1, x2, x3 (TA98; [17]): 53 and 36 and 43
- CC50 [3]: > 100 µM
- CC50 at 3 day [4]: > 100 µM
- pEC50 ([5]; read-out: EC50 HCV Type 1A): 5.66
- EC90 ([5]; read-out: EC90 HCV type 1A): 8 µM
- CC50 [6]: > 100 µM
- increases in the revertant colony counts ([7]; any strain, absence or presence of S9 mix): No substantial increases in the revertant colony counts
- precipitation in the bacterial mutation test ([7]; formulated in DMSO, up to 5000 μg/plate): No precipitation was observed
- toxicity to the bacteria (thinning of the background lawn of non-revertant bacteria) ([7]; up to 5000 μg/plate): non-toxic to the bacteria at the levels tested
